Assay results taken from patent US8563714B2, “Bridged spiro [2.4] heptane derivatives as ALX receptor and/or FPRL2 agonists” (Actelion Pharmaceuticals Ltd., priority 2009, dated 2013).

What was measured:
[1] = biological target: T1, human ALX receptor (Homo sapiens, UniProt P25090); assay: Intracellular calcium measurements (FLIPR), agonistic activity in HEK293-hALXR-Gα16 cells; type: cell-based; details: Fluo-4 calcium FLIPR, normalized to WKYMVm 10 nM
T1 construct: expressed in transfected cells; host or cells: HEK293 (HEK293-hALXR-Gα16)
T1 sequence (P25090 1-351): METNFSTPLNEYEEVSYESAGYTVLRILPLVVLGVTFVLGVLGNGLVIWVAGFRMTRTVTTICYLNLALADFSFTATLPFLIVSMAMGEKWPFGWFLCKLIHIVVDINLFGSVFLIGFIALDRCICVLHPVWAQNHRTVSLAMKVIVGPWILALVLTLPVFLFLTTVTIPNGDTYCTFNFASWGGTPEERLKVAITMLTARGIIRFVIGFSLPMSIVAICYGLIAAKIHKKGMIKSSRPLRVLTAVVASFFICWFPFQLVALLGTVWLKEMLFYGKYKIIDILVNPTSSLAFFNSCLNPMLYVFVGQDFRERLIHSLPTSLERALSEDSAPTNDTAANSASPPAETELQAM
Method: (§1) The ALX receptor and FPRL2 agonistic activities of the compounds of formula (I) are determined in accordance with the following experimental method.
(§2) Intracellular Calcium Measurements:
Cells expressing recombinant human ALX receptor and the G-protein Gα16 (HEK293-hALXR-Gα16) were grown to 80% confluency in Growing Medium (GM). Cells were detached from culture dishes with a cell dissociation buffer (Invitrogen, 13151-014), and collected by centrifugation at 1,000 rpm at rt for 5 min in Assay Buffer (AB) (equal parts of Hank's BSS (Gibco, 14065-049) and DMEM without Phenol Red (Gibco, 11880-028)). After 60 min incubation at 37° C. under 5% CO2 in AB supplemented with 1 μM Fluo-4 (AM) (Invitrogen, F14202), and 20 mM HEPES (Gibco, 15630-056), the cells were washed and resuspended in AB. They were then seeded onto 384-well FLIPR assay plates (Greiner, 781091) at 50′000 cells in 70 μl per well and sedimented by centrifugation at 1,000 rpm for 1 min. Stock solutions of test compounds were made up at a concentration of 10 mM in DMSO, and serially diluted in AB to concentrations required for activation dose response curves. WKYMVm (Phoenix Peptides) was used as a reference agonist. FLIPR384 or FLIPR Tetra instruments (Molecular Devices) were operated according to the manufacturer's standard instructions, adding 4 μl of test compound dissolved at 10 mM in DMSO and diluted prior to the experiment in assay buffer to obtain the desired final concentration. Changes in fluorescence were monitored before and after the addition of test compounds at lex=488 nm and lem=540 nm. Emission peak values above base level after compounds addition were exported after base line subtraction. Values were normalized to high-level control (WKYMVm compound, 10 nM final concentration) after subtraction of the base line value (AB addition).

[2] = biological target: T2, human FPRL2 (Homo sapiens, UniProt P25089); assay: Intracellular calcium measurements (FLIPR), agonistic activity in HEK293-hFPRL2-Gα16 cells; type: cell-based; details: Fluo-4 calcium FLIPR, normalized to GLY14-Humanin 100 nM
T2 construct: expressed in transfected cells; host or cells: HEK293 (HEK293-hFPRL2-Gα16)
T2 sequence (P25089 1-353): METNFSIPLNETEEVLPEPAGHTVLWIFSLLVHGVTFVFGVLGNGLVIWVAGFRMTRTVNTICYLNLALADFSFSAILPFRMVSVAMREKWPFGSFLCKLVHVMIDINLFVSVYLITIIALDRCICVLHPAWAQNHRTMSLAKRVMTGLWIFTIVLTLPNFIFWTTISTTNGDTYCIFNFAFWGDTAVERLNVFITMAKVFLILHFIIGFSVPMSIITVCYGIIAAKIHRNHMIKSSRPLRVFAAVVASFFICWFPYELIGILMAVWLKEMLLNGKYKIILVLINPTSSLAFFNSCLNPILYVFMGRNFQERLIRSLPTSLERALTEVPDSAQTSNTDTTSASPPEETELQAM
Method: as §1, §2
Cells expressing recombinant human FPRL2 and the G-protein Gα16 (HEK293-hFPRL2-Gα16) were grown to 80% confluency in Growing Medium (GM). […] Stock solutions of test compounds were made up at a concentration of 10 mM in DMSO, and serially diluted in AB to concentrations required for activation dose response curves. Gly14-Humanin (Humanin peptide with replacement of Serine by Glycine at position 14, Phoenix Peptides) was used as a reference agonist. FLIPR384 or FLIPR Tetra instruments (Molecular Devices) were operated according to the manufacturer's standard instructions, adding 4 μl of test compound dissolved at 10 mM in DMSO and diluted prior to the experiment in assay buffer to obtain the desired final concentration. Changes in fluorescence were monitored before and after the addition of test compounds at lex=488 nm and lem=540 nm. Emission peak values above base level after compounds addition were exported after base line subtraction. Values were normalized to high-level control (GLY14-Humanin compound, 100 nM final concentration) after subtraction of the base line value (AB addition).

`CC(C)(C)OC(=O)N1CCCC(CCNC(=O)C2C(C(=O)Nc3ccc(Br)cc3)C3C=CC2C32CC2)C1` (mixture of isomers) [Example 99, (5R*)—N^5-(4-Bromophenyl)-(6R*)—N^6-(2-(N-tert-butoxycarbonyl-piperidin-3-yl)-ethyl)-(4S*,7R*)-[4,7-ethenylene-spiro[2.4]heptane]-5,6-dicarboxamide] gave an EC50 [1] of 552 nM and an EC50 [2] of 5490 nM.
With `O=C(NCC1CCCO1)C1C(C(=O)Nc2ccc(Br)cc2)C2CCC1C21CC1` (mixture of isomers) [Example 104, (5R*)—N^5-(4-Bromophenyl)-(6R*)—N^6-(tetrahydrofuran-2-yl-methyl)-(4S*,7R*)-[4,7-ethylene-spiro[2.4]heptane]-5,6-dicarboxamide] the EC50 [1] was 1.5 nM and the EC50 [2] was 5250 nM.
In the case of `CC1CCC(NC(=O)C2C(C(=O)NCCCCN3CCCC3)C3C=CC2C32CC2)CC1` (mixture of isomers) [Example 126, (5R*)—N^5-(4-Methyl-cyclohex-1-yl)-(6R*)—N^6-(4-pyrrolidin-1-yl-butyl)-(4S*,7R*)-[4,7-ethenylene-spiro[2.4]heptane]-5,6-dicarboxamide], the EC50 [1] is reported as 71 nM and the EC50 [2] is reported as 613 nM.
For `CC(NC(=O)C1C(C(=O)NCCCCN2CCCC2)C2C=CC1C21CC1)c1ccc(Br)cc1` (mixture of isomers) [Example 132, (5R*)—N^5-(1-(4-Bromophenyl)-ethyl)-(6R*)—N^6-(4-pyrrolidin-1-yl-butyl)-(4S*,7R*)-[4,7-ethenylene-spiro[2.4]heptane]-5,6-dicarboxamide], the EC50 [1] was 898 nM and the EC50 [2] was 79 nM.
`CC1(C(=O)NCC2C(C(=O)Nc3ccc(Br)cc3)C3C=CC2C32CC2)CC1(Cl)Cl` (mixture of isomers) [Example 165, (5R*)—N^5-(4-Bromo-phenyl)-(6R*)-6-{[(2,2-dichloro-1-methyl-cyclopropylcarbonyl)-amino]-methyl}-(4S*,7R*)-[4,7-ethenylene-spiro[2.4]heptane]-5-carboxamide] gave an EC50 [1] of 87 nM and an EC50 [2] of 2600 nM.
Molecule `O=C(NC1CCNCC1)[C@H]1[C@H](C(=O)Nc2ccc(Br)cc2)[C@@H]2C=C[C@H]1C21CC1` (racemic) [Example 3, (5R*)—N^5-(4-Bromophenyl)-(6R*)—N^6-(piperidin-4-yl)-(4S*,7R*)-[4,7-ethenylene-spiro[2.4]heptane]-5,6-dicarboxamide] has an EC50 [1] of 0.2 nM and an EC50 [2] of 2000 nM.
For `CC(C)CNC(=O)[C@H]1[C@H](C(=O)Nc2ccc(Br)cc2)[C@@H]2C=C[C@H]1C21CC1` (racemic) [Example 4, (5R*)—N^5-(4-Bromophenyl)-(6R*)—N^6-(3-isobutyl)-(4S*,7R*)-[4,7-ethenylene-spiro[2.4]heptane]-5,6-dicarboxamide], the EC50 [1] was 0.24 nM and the EC50 [2] was 5310 nM.
With `NCc1cccc(CNC(=O)[C@H]2[C@H](C(=O)Nc3ccc(Br)cc3)[C@@H]3C=C[C@H]2C32CC2)c1` (racemic) [Example 7, (5R*)—N^5-(4-Bromophenyl)-(6R*)—N^6-((3-aminomethyl-phenyl)-methyl)-(4S*,7R*)-[4,7-ethenylene-spiro[2.4]heptane]-5,6-dicarboxamide] the EC50 [1] was 0.55 nM and the EC50 [2] was 413 nM.
Work on `O=C(NCC1CCNCC1)[C@H]1[C@H](C(=O)Nc2ccc(Br)cc2)[C@@H]2C=C[C@H]1C21CC1` (racemic) [Example 8, (5R*)—N^5-(4-Bromophenyl)-(6R*)—N^6-(4-piperidinyl-methyl)-(4S*,7R*)-[4,7-ethenylene-spiro[2.4]heptane]-5,6-dicarboxamide] yielded an EC50 [1] of 0.82 nM and an EC50 [2] of 2600 nM.
For `CC(C)(CN)CNC(=O)[C@H]1[C@H](C(=O)Nc2ccc(Br)cc2)[C@@H]2C=C[C@H]1C21CC1` (racemic) [Example 10, (5R*)—N^5-(4-Bromophenyl)-(6R*)—N^6-(2,2-dimethyl-3-amino-propyl)-(4S*,7R*)-[4,7-ethenylene-spiro[2.4]heptane]-5,6-dicarboxamide], the EC50 [1] was 0.98 nM and the EC50 [2] was 726 nM.
`CCN(CC)CCCCNC(=O)[C@H]1[C@H](C(=O)Nc2ccc(Br)cc2)[C@@H]2C=C[C@H]1C21CC1` (racemic) [Example 11, (5R*)—N^5-(4-Bromophenyl)-(6R*)—N^6-(4-(N,N-diethyl-amino)-butyl)-(4S*,7R*)-[4,7-ethenylene-spiro[2.4]heptane]-5,6-dicarboxamide] was tested, and the EC50 [1] was 1 nM and the EC50 [2] was 329 nM.
`O=C(NC1CCCC1)[C@H]1[C@H](C(=O)Nc2ccc(Br)cc2)[C@@H]2C=C[C@H]1C21CC1` (racemic) [Example 15, (5R*)—N^5-(4-Bromophenyl)-(6R*)—N^6-(cyclopentyl)-(4S*,7R*)-[4,7-ethenylene-spiro[2.4]heptane]-5,6-dicarboxamide] showed an EC50 [1] of 1.3 nM and an EC50 [2] of 4400 nM.
Molecule `NCCCNC(=O)[C@H]1[C@H](C(=O)Nc2ccc(Br)cc2)[C@@H]2C=C[C@H]1C21CC1` (racemic) [Example 16, (5R*)—N^5-(4-Bromophenyl)-(6R*)—N^6-(3-amino-propyl)-(4S*,7R*)-[4,7-ethenylene-spiro[2.4]heptane]-5,6-dicarboxamide] has an EC50 [1] of 1.4 nM and an EC50 [2] of 3920 nM.
With `CCOCCCNC(=O)[C@H]1[C@H](C(=O)Nc2ccc(Br)cc2)[C@@H]2C=C[C@H]1C21CC1` (racemic) [Example 17, (5R*)—N^5-(4-Bromophenyl)-(6R*)—N^6-(3-ethoxy-propyl)-(4S*,7R*)-[4,7-ethenylene-spiro[2.4]heptane]-5,6-dicarboxamide] the EC50 [1] was 1.8 nM and the EC50 [2] was 2010 nM.
With `O=C(NCC(F)(F)F)[C@H]1[C@H](C(=O)Nc2ccc(Br)cc2)[C@@H]2C=C[C@H]1C21CC1` (racemic) [Example 19, (5R*)—N^5-(4-Bromophenyl)-(6R*)—N^6-(2,2,2-trifluoro-ethyl)-(4S*,7R*)-[4,7-ethenylene-spiro[2.4]heptane]-5,6-dicarboxamide] the EC50 [1] was 2.4 nM and the EC50 [2] was 2480 nM.
`O=C(NCCF)[C@H]1[C@H](C(=O)Nc2ccc(Br)cc2)[C@@H]2C=C[C@H]1C21CC1` (racemic) [Example 20, (5R*)—N^5-(4-Bromophenyl)-(6R*)—N^6-(2-fluoro-ethyl)-(4S*,7R*)-[4,7-ethenylene-spiro[2.4]heptane]-5,6-dicarboxamide] was tested, and the EC50 [1] was 2.7 nM and the EC50 [2] was 2860 nM.
Work on `CNCCNC(=O)[C@H]1[C@H](C(=O)Nc2ccc(Br)cc2)[C@@H]2C=C[C@H]1C21CC1` (racemic) [Example 21, (5R*)—N^5-(4-Bromophenyl)-(6R*)—N^6-(2-(N-methyl-amino)-ethyl)-(4S*,7R*)-[4,7-ethenylene-spiro[2.4]heptane]-5,6-dicarboxamide] yielded an EC50 [1] of 2.8 nM and an EC50 [2] of 1690 nM.
With `O=C(N[C@H]1CC[C@H](O)CC1)[C@H]1[C@H](C(=O)Nc2ccc(Br)cc2)[C@@H]2C=C[C@H]1C21CC1` (racemic) [Example 23, (5R*)—N^5-(4-Bromophenyl)-(6R*)—N^6-(4-hydroxy-cyclohexyl)-(4S*,7R*)-[4,7-ethenylene-spiro[2.4]heptane]-5,6-dicarboxamide] the EC50 [1] was 3.3 nM and the EC50 [2] was > 25000 nM.
